# Assay results reported in patent US10736906B2, “Method to enhance tissue regeneration” (CHILDREN'S MEDICAL CENTER CORPORATION, priority 2006, dated 2020).
# Entries after “also recorded” stand apart in the source; their conditions may differ.
# Assays:
# bone marrow = bone marrow recovery following 5-FU chemical injury in APCMin/+ mice; type: in vivo; details: 1 mg/kg every 48 hrs, after 5-FU
# Method: (§1) It has been hypothesized that wnt activation regulates HSC self-renewal and repopulation. Wnt activation is also thought to be involved in carcinogenesis, however, making the concept of direct enhancement of wnt signaling problematic. Whether regulation of wnt activity by prostaglandin can effectively modulate HSC homeostasis in the adult, was determined by observing hematopoietic recovery following irradiation in the zebrafish. […] APCMin/+ mice have elevated β-catenin levels due to loss of APC function in the destruction complex.
# adult zebrafish liver = assay: liver regeneration and wound healing after 1/3 partial hepatectomy in adult zebrafish; type: in vivo
# Description: Following ⅓ partial hepatectomy, the zebrafish liver regenerates within five days to seven days.
# As many molecular pathways controlling embryonic development mediate tissue homeostasis in the adult, the effects of prostaglandin signaling during liver regeneration were examined. […] Fish were revived and allowed to heal in fish water.
# To test the requirement of functional prostaglandin signaling during regeneration, fish were exposed to the dual-specific cox inhibitor, indomethacin, from hour 6 to hour 18 following partial hepatectomy.
# Liver Resection: Folling administration of tricaine anesthetic, ⅓ partial hepaectomy of the adult zebrafish liver was performed under brightfield imaging on a dissection microscope. An incision was made using microdissection scissors posterior to the heart on the left lateral portion of the abdomen.
# [1] = system: cKit+Sca1+ Lineage- (KSL) bone marrow cells; assay: murine transplantation assay with purified HSCs, CFU-S12; type: in vivo, mice; details: concurrent administration with BIO; indomethacin 1 mg/kg and 2.5 mg/kg
# Method: To assess whether prostaglandin levels regulate wnt activity in HSCs, murine transplantation assays were performed utilizing purified HSCs. FACS-isolated cKit+Sca1+ Lineage—(KSL) bone marrow cells were transplanted into lethally irradiated recipients.
# [2] = system: stem and progenitor cell population; assay: hematopoietic recovery following irradiation in the adult zebrafish (kidney marrow); type: in vivo; details: ten days post irradiation; wnt8 induction 24-36 hours post irradiation
# Method: as §1
compound,measurement,setting,value
COc1ccc2c(c1)c(CC(=O)O)c(C)n2C(=O)c1ccc(Cl)cc1 [indomethacin],effect on the proliferative advantage (bone marrow recovery) in APCMin/+ mice,bone marrow,markedly diminished the proliferative advantage
same,liver architecture,adult zebrafish liver; at resection margin and throughout un-injured portions,altered architecture of the liver
same,liver regrowth compared to controls,adult zebrafish liver; exposure following resection (indomethacin hour 6 to 18; day 1 and day 3),significantly reduced liver re-growth
same,complete regeneration of the liver,adult zebrafish liver; indomethacin: by day 5 post-resection,failed to regenerate fully
same,wound healing at the incision site,adult zebrafish liver; skin wounds following partial hepatectomy,severely inhibited; also recorded: prohibited wound healing
same,regenerative index,"adult zebrafish liver; treatment 6 to 18 hours post resection, wild-type and APC mutant fish",significantly diminished
same,"β-catenin, immunohistochemistry post resection",adult zebrafish liver; wild-type and APC+/− fish,decrease in overall β-catenin levels
same,effect on BIO-enhanced CFU-S number,[1],blocks this effect; also recorded: diminished CFU-S number back to baseline levels
same,effect on wnt8-induced 2.5-fold increase in stem and progenitor cell population,[2],significantly diminished
